This is an account of results in patent US4200635A, “Antibacterially active amides” (Beecham Group Limited, priority 1977, dated 1980).

Converted amounts (≈) assume the structure as drawn. Like-named read-outs stand apart in the source and are kept apart here.

Data set [1] deals with Haemophilus influenzae Q1. Briefly: MIC, serial dilution in nutrient agar, human bacteria. In kind it is cell-based. The conditions noted are these: nutrient agar containing 5% chocolated horse blood.
In data set [2] the test system is Haemophilus influenzae Wy21. The data set is described as above. It is filed as cell-based. The conditions noted are these: Haemophilus influenzae Wy21; nutrient agar containing 5% chocolated horse blood; read-out: M.I.C.
In data set [3] the test system is Neisseria catarrhalis 1502. Described as above. In kind it is cell-based.
The subject of the next data set is Bacillus subtilis 6633. The description is as above. It is filed as cell-based. The conditions noted are these: Bacillus subtilis 6633; nutrient agar containing 5% chocolated horse blood; read-out: M.I.C.
The next data set has as its system Staph. aureus Oxford. The data set is described as above. It is filed as cell-based. The conditions noted are these: Staphylococcus aureus; Staph. aureus Oxford; nutrient agar containing 5% chocolated horse blood; read-out: M.I.C.
Another data set deals with Staph. aureus Russell. The description is as above. In kind it is cell-based. The conditions noted are these: Staphylococcus aureus; Staph. aureus Russell; nutrient agar containing 5% chocolated horse blood; read-out: M.I.C.
Another data set deals with Strep. pneumoniae CN33. The data set is described as above. The conditions noted are these: Streptococcus pneumoniae; Strep. pneumoniae CN33; nutrient agar containing 5% chocolated horse blood; read-out: M.I.C. In kind it is cell-based.
The test system of the next data set is Bord. bronchiseptica BO9. Briefly: MIC, veterinary bacteria. It is filed as cell-based. The conditions noted are these: Bordetella bronchiseptica; Bord. bronchiseptica BO9; read-out: M.I.C.
Another data set relates to Past. multocida PAI. Briefly: MIC, veterinary bacteria. In kind it is cell-based. Conditions: Pasteurella multocida; Past. multocida PAI; read-out: M.I.C.
Another data set has as its system Past. haemolytica PA5. Briefly: MIC, veterinary bacteria. In kind it is cell-based. Conditions: Mannheimia haemolytica; Past. haemolytica PA5; read-out: M.I.C.
The test system of the next data set is Staph. aureus B4. Kind of data set: MIC, veterinary bacteria. In kind it is cell-based. The conditions noted are these: Staphylococcus aureus; Staph. aureus B4; read-out: M.I.C.
Another data set relates to Staph. aureus 152. Kind of data set: MIC, veterinary bacteria. In kind it is cell-based. Conditions: Staphylococcus aureus.
The subject of another data set is Strep. uberis SPU 1. Briefly: MIC, veterinary bacteria. It is filed as cell-based. The conditions noted are these: Streptococcus uberis, SPU1; Strep. uberis SPU 1; read-out: M.I.C.
In data set [4] the test system is Strep. dysgalactiae SPD 1. Kind of data set: MIC, veterinary bacteria. In kind it is cell-based. Conditions: Streptococcus dysgalactiae, SPD1; Strep. dysgalactiae SPD 1; read-out: M.I.C.
Another data set has as its system M. suipneumoniae Str. 11. Briefly: in vitro MIC, anti-mycoplasmal activity. It is filed as cell-based. The conditions noted are these: Mesomycoplasma hyopneumoniae, Friis' broth, microtiter method.
The subject of the next data set is M. dispar H225. Briefly: in vitro MIC, anti-mycoplasmal activity. Conditions: M. dispar H225; Friis' broth, microtiter method; read-out: M.I.C. It is filed as cell-based. An excerpt:
(§1) Tables 3 and 4 show the in vitro MIC values (μg/ml) of the compounds of Examples 1 to 9 against a number of mycoplasma organisms, determined in Friis' broth using the microtiter method.

For a further data set, the system named is M. dispar NCTC 10125. Kind of data set: in vitro MIC, anti-mycoplasmal activity. It is filed as cell-based. Conditions: Friis' broth, microtiter method.
Text: as §1

Another data set has as its system M. fermentans MWKL4. Briefly: in vitro MIC, anti-mycoplasmal activity. In kind it is cell-based. The conditions noted are these: Mycoplasmopsis fermentans, Friis' broth, microtiter method.
Text: as §1

The test system of another data set is M. pneumoniae ATCC 15492. Briefly: in vitro MIC, anti-mycoplasmal activity. In kind it is cell-based. Conditions: Mycoplasmoides pneumoniae, ATCC15492, Friis' broth, microtiter method.
Text: as §1

The test system of a further data set is M. pulmonis JB. Kind of data set: in vitro MIC, anti-mycoplasmal activity. It is filed as cell-based. Conditions: Mycoplasmopsis pulmonis, Friis' broth, microtiter method.
Text: as §1

Data set [5] deals with M. suipneumoniae J2206/183b. Briefly: in vitro MIC, anti-mycoplasmal activity. In kind it is cell-based. The conditions noted are these: Mesomycoplasma hyopneumoniae, Friis' broth, microtiter method.
Text: as §1

For another data set, the system named is M. pneumoniae 427a. Briefly: in vitro MIC, anti-mycoplasmal activity. In kind it is cell-based. The conditions noted are these: Mycoplasmoides pneumoniae, Friis' broth, microtiter method.
A further data set in a line: Mouse blood levels. In kind it is in vivo, male albino mice, CS1 strain. Conditions: for concentration at 5 min / concentration at 10 min / concentration at 20 min / concentration at 0.5 h / concentration at 1 h / half-life: blood, sc, 50 mg/kg subcutaneous; for concentration at 5 min: 5 minutes after dosing; for concentration at 5 min / concentration at 10 min / concentration at 20 min / concentration at 0.5 h / concentration at 1 h: mean of 5 experiments, assay Neisseria catarrhalis, read-out: Concentration (blood level); for concentration at 10 min: 10 minutes after dosing; for concentration at 20 min: 20 minutes after dosing; for concentration at 0.5 h: 30 minutes after dosing; for concentration at 1 h: 60 minutes after dosing. How it is done:
The blood levels of the 5-ethoxycarbonylpentyl amide of monic acid A were measured after subcutaneous dosing to male albino mice.
Species: Albino male mice 18-22 g CS1 strain.
Routes: Subcutaneous and oral.
Dose: 50 mg/kg. This compound was supplied as an oil. It was administered as a solution in 10% DMF v/v in PBS or water.
Assay: Neisseria catarrhalis, immediate assay of samples.

The subject of data set [6] is Pasteurella multocida 1633. Briefly: MIC, serial dilution in nutrient agar, human bacteria. In kind it is cell-based. Conditions: nutrient agar containing 5% chocolated horse blood.

With `CCOC(=O)CCCCCNC(=O)C=C(C)CC1OCC(CC2OC2C(C)C(C)O)C(O)C1O` (centres unmarked) [Example 5, 5-Ethoxycarbonylpentylamide of monic acid A], the MIC in data set [1] came out at 0.05 µg/mL (≈ 0.103 µM); in data set [2], 0.5 µg/mL (≈ 1.03 µM); in [3] (Neisseria, 1502), 0.05 µg/mL (≈ 0.103 µM); with Bacillus subtilis 6633, 10 µg/mL (≈ 20.6 µM); in the data set on Staph. aureus Oxford it was 25 µg/mL (≈ 51.5 µM); with Staph. aureus Russell it was 50 µg/mL (≈ 103 µM). The MIC in the data set on Strep. pneumoniae CN33 was determined as 1 µg/mL (≈ 2.06 µM); in the data set on Bord. bronchiseptica BO9, 23 µg/mL (≈ 47.4 µM); in the data set with Past. multocida PAI, 0.35 µg/mL (≈ 0.721 µM); in the data set on Past. haemolytica PA5, 11 µg/mL (≈ 22.7 µM); with Staph. aureus B4, 11 µg/mL (≈ 22.7 µM); in the data set on Staph. aureus 152, 45 µg/mL (≈ 92.7 µM). Besides, the MIC in the data set with Strep. uberis SPU 1 came out at 0.35 µg/mL (≈ 0.721 µM); in data set [4], 0.7 µg/mL (≈ 1.44 µM); against M. suipneumoniae Str. 11, 1.25 µg/mL (≈ 2.57 µM); with M. dispar H225, 0.312 µg/mL (≈ 0.642 µM); in the data set with M. dispar NCTC 10125 it was 0.156 µg/mL (≈ 0.321 µM); with M. fermentans MWKL4, 0.039 µg/mL (≈ 0.0803 µM). In addition, the MIC is 10 µg/mL (≈ 20.6 µM) against M. pneumoniae ATCC 15492, < 0.02 µg/mL against M. pulmonis JB, 2.5 µg/mL (≈ 5.15 µM) in data set [5] and > 10 µg/mL against M. pneumoniae 427a. For the same molecule, in the data set “Mouse blood levels”, the concentration at 5 min was found to be 22100 ng/mL. For the same molecule, the concentration at 10 min in the data set “Mouse blood levels” stood at 22600 ng/mL. Further, the concentration at 20 min in the data set “Mouse blood levels” amounted to 16100 ng/mL. In the data set “Mouse blood levels”, the concentration at 0.5 h was 9100 ng/mL. In the data set “Mouse blood levels”, the concentration at 1 h is < 4000 ng/mL. Besides, the half-life – broadly, the time needed for the level to fall by half in the phase considered – in the data set “Mouse blood levels” is 15 min. Further, the “blood levels compared with pseudomonic acid” value in “Mouse blood levels” (subcutaneous dosing) was “higher and more prolongued than those obtained after subcutaneous dosing of pseudomonic acid”.
Regarding `C/C(=C\C(=O)OCCCCCCCCC(=O)O)C[C@@H]1OC[C@H](C[C@@H]2O[C@H]2[C@@H](C)[C@H](C)O)[C@@H](O)[C@H]1O` [Pseudomonic Acid, reference compound], in “Mouse blood levels”, the concentration at 5 min stood at 8200 ng/mL, the concentration at 10 min was found to be 3700 ng/mL, the concentration at 20 min worked out at 1100 ng/mL and the concentration at 0.5 h is 620 ng/mL. Moreover, in “Mouse blood levels”, the concentration at 1 h was < 500 ng/mL and the half-life is 5 min.
With `C=CCNC(=O)C=C(C)CC1OCC(CC2OC2C(C)C(C)O)C(O)C1O` (centres unmarked) [Example 8, Allylamide of monic acid A], the MIC in data set [6] was 0.05 µg/mL (≈ 0.13 µM); in data set [1] it was > 100 µg/mL; in data set [3] (Neisseria catarrhalis 1502, nutrient agar containing 5% chocolated horse blood, read-out: M.I.C.) it was 100 µg/mL (≈ 261 µM); in the data set with Bacillus subtilis 6633 it was 2.5 µg/mL (≈ 6.52 µM); in the data set on Staph. aureus Oxford, 2.5 µg/mL (≈ 6.52 µM); with Staph. aureus Russell, 100 µg/mL (≈ 261 µM). Also, the MIC with Strep. pneumoniae CN33 was 5 µg/mL (≈ 13 µM); in the data set on Bord. bronchiseptica BO9, 1.25 µg/mL (≈ 3.26 µM); with Past. multocida PAI, 1.25 µg/mL (≈ 3.26 µM); in the data set with Past. haemolytica PA5 it was 0.625 µg/mL (≈ 1.63 µM); in the data set on Staph. aureus B4, 5 µg/mL (≈ 13 µM); against Staph. aureus 152 it was 20 µg/mL (≈ 52.2 µM). Also, the MIC in the data set with Strep. uberis SPU 1 came out at 0.625 µg/mL (≈ 1.63 µM); in data set [4] it was 0.156 µg/mL (≈ 0.407 µM); against M. suipneumoniae Str. 11, 0.625 µg/mL (≈ 1.63 µM); in the data set on M. dispar H225, 0.078 µg/mL (≈ 0.203 µM); in the data set with M. dispar NCTC 10125 it was 0.078 µg/mL (≈ 0.203 µM); in the data set with M. fermentans MWKL4, 0.039 µg/mL (≈ 0.102 µM). In addition, the MIC was 0.039 µg/mL (≈ 0.102 µM) against M. pulmonis JB, 1.25 µg/mL (≈ 3.26 µM) in [5] and 10 µg/mL (≈ 26.1 µM) against M. pneumoniae 427a.
